In patent publication US5919653A, “Nucleic acids encoding a human glycine transporter” (Allelix Neuroscience Inc., priority 1996, dated 1999):
pIC50: −log10 of the molar value.

Biological target: human GlyT-2 glycine transporter (clone pHGT2, SEQ ID 20 nucleic acid / SEQ ID 21 protein) (Homo sapiens, UniProt Q9Y345, I279N/I611V)
Experiment: cell-based
Procedure: Transient GlyT-transfected cells or control cells grown in accordance with Example 5 were washed three times with HEPES buffered saline (HBS). The control cells were treated precisely as the GlyT-transfected cells except that the transfection procedure omitted any cDNA. […] The cells were then incubated another 20 minutes at 37° C., after which the cells were washed three times with ice-cold HBS. Scintillant was added to the cells, the cells were shaken for 30 minutes, and the radioactivity in the cells was counted using a scintillation counter. Data were compared between the cells contacted or not contacted by a prospective agent, and, where relevant, between cells having GlyT-1 activity versus cells having GlyT-2 activity, depending on the assay being conducted.
Data points represent means±SEM from an experiment performed in quadruplicate.

Chain of human GlyT-2 glycine transporter (clone pHGT2, SEQ ID 20 nucleic acid / SEQ ID 21 protein) (Q9Y345 whole entry I279N/I611V): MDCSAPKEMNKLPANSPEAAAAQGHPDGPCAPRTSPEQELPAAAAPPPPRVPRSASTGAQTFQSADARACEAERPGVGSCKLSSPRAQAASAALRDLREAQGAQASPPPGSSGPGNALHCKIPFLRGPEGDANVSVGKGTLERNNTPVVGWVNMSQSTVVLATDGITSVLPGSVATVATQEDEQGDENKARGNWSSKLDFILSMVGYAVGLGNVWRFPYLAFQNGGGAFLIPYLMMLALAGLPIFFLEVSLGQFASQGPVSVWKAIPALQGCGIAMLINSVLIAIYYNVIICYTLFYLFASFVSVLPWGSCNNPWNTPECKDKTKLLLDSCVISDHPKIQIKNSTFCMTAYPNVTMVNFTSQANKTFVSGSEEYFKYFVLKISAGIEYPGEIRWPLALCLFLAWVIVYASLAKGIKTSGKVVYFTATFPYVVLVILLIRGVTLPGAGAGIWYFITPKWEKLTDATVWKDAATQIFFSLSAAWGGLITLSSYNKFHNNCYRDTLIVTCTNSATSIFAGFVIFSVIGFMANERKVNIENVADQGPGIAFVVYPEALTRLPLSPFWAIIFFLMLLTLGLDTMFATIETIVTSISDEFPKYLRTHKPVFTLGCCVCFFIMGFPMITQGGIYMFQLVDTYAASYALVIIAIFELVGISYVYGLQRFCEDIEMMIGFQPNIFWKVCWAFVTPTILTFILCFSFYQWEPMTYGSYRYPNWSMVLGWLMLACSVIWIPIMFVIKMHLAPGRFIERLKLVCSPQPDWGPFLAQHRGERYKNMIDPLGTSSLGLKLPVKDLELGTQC

For `NCC(=O)O` [glycine], the pIC50 was 4.40.
